According to patent US12103939B2, “Solid pharmaceutical gold-based composition” (KING FAHD UNIVERSITY OF PETROLEUM AND MINERALS, priority 2019, dated 2024):
Several values for one entry are separate records, joined by “and”; a condition that tells them apart may be missing. Equal values may be shown once.

How the values were obtained:
PC3 cells [1] = experiment: Cell cycle distribution (PI staining); assay type: cell-based, human; conditions: vs untreated cells
Protocol: To assay the distribution of cells in the various phases of the cell cycle, PC3 cells were treated with C6 for 48 h, then harvested, fixed in cold 70% ethanol for 15 min and stained with PI solution (50 μg/mL PI, 0.1% NP-40, 100 μg/mL PureLink RNase A, 0.1% sodium citrate). After 1 h, cells were analyzed by flow cytometry. The distribution of cells in different cell cycle phases was quantified using ModFit LT 4.0 software.

PC3 cells [2] = experiment: Cellular uptake of gold(III) complexes (ICP-MS); assay type: cell-based, human; conditions: 3 μM, 2 h, ICP mass spectrometry
Protocol: After treatment, monolayers were washed with ice-cold PBS four times, and the cells were detached with trypsin-EDTA and washed three times with ice-cold PBS by centrifugation. The cell pellet was solubilized in 700 μL of HNO3—HCl solution (1:3 molar ratio) for 2 h at 100° C., and then diluted with 4 mL water. Samples were analyzed for gold on an Agilent 7500 inductively coupled plasma mass spectrometer (ICP-MS). Results were expressed as ng gold/10^6 cells. The experiment was performed a total of two times and the results were expressed as mean and SD.

caspase 3,7 = experiment: Caspase 3,7 activation (FLICA, flow cytometry); assay type: cell-based, human; conditions: PC3, 24 h
Protocol: (§1) For apoptosis assays, PC3 cells were treated with C6 for 24 h and then apoptosis was assayed by staining for 15 min with FITC Annexin V reagent (BD Pharmingen) and propidium iodide (PI). Apoptotic cells were detected by flow cytometry (BD FACSCanto II flow cytometer) and analyzed using BD FACSDiva v8.0.1 software (BD Biosciences). Caspase 3,7 activation was evaluated using fluorochrome-labeled inhibitors of caspases (FLICA) of the CaspaTag Caspase 3,7 In Situ Assay Kit, Fluorescein (Millipore) and evaluated by flow cytometry; data were expressed as mean fluorescence intensity.

PC3 cells [3] = experiment: In vitro scratch assay (cell migration); assay type: cell-based, human; conditions: PC3, 3 h pretreatment with C6 (IC50), 36 h after scratch; control about 10%
Protocol: Cell migration was assessed using the in vitro scratch assay. Briefly, cells were grown to confluence and then treated with C6 (IC50). After 3 h, monolayers were washed twice with PBS, scraped with a pipette tip to create a “wound” in the monolayer, and washed again. Culture medium with 2% (not 10%) FBS was added and the cells were cultured for 36 h. Wounds were photographed every 12 h using an inverted microscope (EclipseTS/100, Nikon) at magnification 4×. Migration was assessed by measuring the cell-free area (in pixels) with ImageJ tool software after 12, 24 and 36 h.

PC3 cells [4] = experiment: Apoptosis assay (Annexin V-FITC / propidium iodide, flow cytometry); assay type: cell-based, human; conditions: PC3, C6 at IC50 and IC75, 24 h
Protocol: as §1

[5] = test system: A549 lung cancer cell line; experiment: Cytotoxicity assay (MTT, 72 h); assay type: cell-based, human; conditions: A549, MTT after 72 h, mean (SD); read-out: Half-maximal inhibitory concentration (IC50)
Protocol: (§2) R-ME-180 and A2780cis cells were maintained in 1 μM cisplatin. Adipose-derived stromal cells were maintained in MSCGM BulletKit medium (Lonza). All cell lines were cultured at 37° C. in a 5% CO2, fully humidified atmosphere
(§3) Cell lines were seeded in 96-well flat-bottomed microplates in 100 μL culture medium at the following densities: DU145, PC3 and MCF-7 cells (2.5×10^3 cells/well); A2780, A2780cis, ME-180, R-ME-180 and A549 cells (4.0×10^3 cells/well); and MG-63 cells (2.0×10^3 cells/well). Cells were allowed to adhere for 24 h. Then the medium was replaced with fresh medium alone or with one of the gold(III) complexes at increasing concentrations from 0 to 100 μM. The reference drugs cisplatin (0-100 μM) and doxorubicin (0-1 μM) were included as positive controls for growth inhibition. After 72 h, cell viability was assayed using the MTT assay.
(§4) See Chou T. C.; Talalay P. Quantitative analysis of dose-effect relationships: the combined effects of multiple drugs or enzyme inhibitors. […] 22, 27-55, incorporated herein by reference in its entirety. IC50 values were reported as mean (SD). For drug-resistance cell lines, fold resistance (FR) was calculated as the ratio of the IC50 of the resistant cell line to the IC50 of the parental cell line.

[6] = test system: cisplatin-resistant R-ME-180 clone; experiment: Cytotoxicity assay (MTT, 72 h); assay type: cell-based, human
Protocol: as §2, §3, §4

[7] = test system: MCF-7 breast cancer cell line; experiment: Cytotoxicity assay (MTT, 72 h); assay type: cell-based, human; conditions: MCF-7, MTT after 72 h, mean (SD); read-out: Half-maximal inhibitory concentration (IC50)
Protocol: as §2, §3, §4

[8] = test system: cisplatin- and doxorubicin-resistant A2780cis clone; experiment: Cytotoxicity assay (MTT, 72 h); assay type: cell-based, human
Protocol: as §2, §3, §4

[9] = test system: MG-63 osteosarcoma cell line; experiment: Cytotoxicity assay (MTT, 72 h); assay type: cell-based, human; conditions: MG63, MTT after 72 h, mean (SD); read-out: Half-maximal inhibitory concentration (IC50)
Protocol: as §2, §3, §4

[10] = test system: PC3 prostate cancer cell line; experiment: Cytotoxicity assay (MTT, 72 h); assay type: cell-based, human
Protocol: as §2, §3, §4

[11] = test system: DU145 prostate cancer cell line; experiment: Cytotoxicity assay (MTT, 72 h); assay type: cell-based, human; conditions: DU145, MTT after 72 h, mean (SD); read-out: Half-maximal inhibitory concentration (IC50)
Protocol: as §2, §3, §4

PC3 cell xenografts = experiment: Human prostate tumor xenograft experiment; assay type: in vivo, female athymic nude mice
Protocol: Animal experiments were approved by the Italian Ministry of Health (no. 671/2015/PR). Ten 4-week-old female athymic nu/nu (nude) mice were purchased from Envigo. PC3 cells (3×10^6 in a 0.1 mL solution of Matrigel 1:3 in PBS) were inoculated subcutaneously into the right flank of each mouse. Body weight and tumors were measured three times a week, and tumor volumes were calculated according to the formula: (width^2×length×3.14)/6. When tumors reached a volume of ca. 120 mm^3, mice were divided into two groups of five animals each. Mice were treated every other day with an intratumoral injection of 2.5 mg/kg C6 or an equal volume of vehicle (10% DMSO, 20% Cremophor Sigma-Aldrich, 70% PBS). Mice were killed on day 32 when control tumors had reached about 1300 mm^3.

20S proteasome = 20S proteasome activity in lysates of treated PC3 cells; assay type: cell-based, human; conditions: PC3, 12 h
Protocol: Proteasome activity (EC 3.4.25.1) was evaluated on the same cell lysates as used to assay TrxR. Proteasome activity was assayed in cytosolic extracts using the 20S Proteasome Activity Assay kit APT280 (Merck Millipore) and a computer-interfaced GeniusPlus microplate reader (Tecan).

C[N+](C)=C1[S][Au-]2([S]1)[n+]1ccc[n+]3c1-c1[n+]2ccc[n+]1[Au-]31[S]C(=[N+](C)C)[S]1.[Cl-].[Cl-].[Cl-].[Cl-] [C6, [Au2(BPM)(DMDTC)2]Cl4]
distribution of cells in the cell cycle (PC3 cells [1]): increasing the percentage of cells in S phase and decreasing that in G1
amount of internalized gold (cellular uptake) (PC3 cells [2]): internalization even greater than that of C7
caspase 3,7 activation (FLICA) (caspase 3,7): activated caspase 3,7
remaining uncovered area in scratch assay (PC3 cells [3]): about 40%
percentage of annexin-V-positive and annexin-V/PI-positive cells (apoptosis) (PC3 cells [4]): dose-dependent increase in the percentage of annexin-V-positive cells
IC50 [5]: 800 nM
FR (R-ME-180/ME-180), fold resistance ([6]; IC50 R-ME-180 / IC50 ME-180): 0.9
IC50 ([6]; R-ME-180, MTT after 72 h, mean (SD)): 4900 nM
IC50 [7]: 500 nM
IC50 ([8]; A2780cis, MTT after 72 h, mean (SD)): 300 nM
FR (A2780cis/A2780), fold resistance ([8]; IC50 A2780cis / IC50 A2780): 1.2
IC50 [9]: 800 nM
IC25 ([10]; PC3): 310 nM
IC75 ([10]; PC3): 1850 nM
IC50 ([10]; PC3, MTT after 72 h, mean (SD), read-out: Half-maximal inhibitory concentration (IC50)): 600 nM and 620 nM
IC50 [11]: 700 nM
inhibitory effect on tumor growth (PC3 cell xenografts; day 32, 2.5 mg/kg intratumoral every other day, vs vehicle): 71%
mean tumor volume (PC3 cell xenografts; day 32, 2.5 mg/kg intratumoral every other day, control 1327 mm^3): 385 mm^3
weight of the animals (PC3 cell xenografts; xenografted mice, 2.5 mg/kg intratumoral): did not affect the weight of the animals
20S proteasome activity (20S proteasome): dose-dependent inhibitory effect
